{"source": "patent US11052154B2", "about": "“Ras protein degradation inducing molecule and pharmaceutical composition” (Tokyo University of Science Foundation, priority 2016, dated 2021)", "key": {"wild-type K-Ras protein": {"biological_target": "T1, wild-type K-Ras protein (Homo sapiens, UniProt P01116)", "T1 construct": "expressed in transfected cells; host or cells: HeLa", "T1 sequence (P01116 1-188 isoform P01116-2)": "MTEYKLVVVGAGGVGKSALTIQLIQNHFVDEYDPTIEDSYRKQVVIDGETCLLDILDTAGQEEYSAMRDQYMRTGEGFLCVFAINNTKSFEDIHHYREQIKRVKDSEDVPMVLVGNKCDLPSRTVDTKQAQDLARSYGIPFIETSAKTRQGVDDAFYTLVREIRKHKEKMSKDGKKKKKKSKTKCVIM", "experiment": "Degradation (knockdown) of wild-type K-Ras protein forcibly expressed in HeLa cells, FACS analysis", "assay_type": "cell-based", "settings": "FIG. 1", "experimental": "In Example 2, degradation (knockdown) of a wild-type K-Ras protein forcibly expressed in HeLa cells (human cervical cancer cells) through TUS-007 was evaluated by FACS analysis. […] The full-length cDNA clone (Accession No. AK292510) of a human K-ras gene was purchased from Independent Administrative Institution, the National Institute of Technology and Evaluation. PCR amplification was performed using KOD-Plus-Neo (TOYOBO CO., LTD) as a PCR enzyme. The plasmid was introduced into HeLa cells to transiently overexpress a wild-type K-Ras protein (specifically, a fusion protein of a wild-type K-Ras protein and GFP via a HA tag) or a DsRed protein for comparison in the […] (Wako Pure Chemical Industries, Ltd.) as a transfection reagent was used to introduce the plasmid into HeLa cells by a routine procedure. […] Culture was performed for 40 hours after introduction of the plasmid, and then TUS-007 was added to HeLa cells as follows. […] A BD FACSCantoTM II (BD Biosciences) was used for flow cytometry, and the expression levels of GFP and the DsRed protein in the cells were quantified. […] The GFP/DsRed ratio per cell was computed using an analysis software FlowJoTM (TOMY Digital Biology Co., Ltd.), and degradation (knockdown) of the wild-type K-Ras protein by TUS-007 was determined from a shift in a graph."}, "[1]": {"experiment": "Body weight change and general condition of mice with subcutaneously implanted SW1990 cells", "assay_type": "in vivo, mouse", "settings": "oral 80 mg/kg once every 3 days, 7 doses", "experimental": "To the subcutis of T-cell deficient mice (BALB/cAJcl-nu/nu, 4 weeks old, female) (CLEA Japan, Inc.), 0.1 mL of cell suspension in which SW1990 cells were suspended in PBS so as to be 1×10^7 cells/mL was implanted using a 26-gauge injection needle (TERUMO CORPORATION).\nImmediately before administration, TUS-007 was dissolved in DMSO, 0.5 mass % carboxymethyl cellulose (Code No. 039-01335, Wako Pure Chemical Industries, Ltd.) solution was added so that the concentration of DMSO became 2.5 vol %, followed by pulverization by ultrasonic treatment to prepare a suspension of TUS-007. When the tumors of mice with subcutaneously implanted SW1990 cells grew to a size of approximately 100 mm^3, the prepared TUS-007 suspension was orally administered by gavage with a gastric tube (Code No. 5202K, Fuchigami Kikai) at a dose of 80 mg/kg body weight once every 3 days for a total of 7 doses (n=6 to 9). As a control (Vehicle), 0.5 mass % carboxymethyl cellulose solution containing 2.5 vol % DMSO was administered in the same manner."}}}
{"smiles": "CCC(C)[C@H](NC(=O)CCCCCCNC(=O)[C@H](CC(C)C)NC(=O)CNC(=O)c1cc(Cl)ccc1Cl)C(=O)Nc1ccc2[nH]c(Cc3c[nH]c4ccccc34)nc2c1", "note": "(stereo in doubt) [TUS-007]", "values": [{"measurement": "degradation (knockdown) of the wild-type K-Ras protein (shift of GFP/DsRed ratio graph)", "setting": "wild-type K-Ras protein; 24 hours after addition, vs control (DMSO)", "result": "degradation of the wild-type K-Ras protein was induced"}, {"measurement": "degradation of the wild-type K-Ras protein when both TUS-007 and MLN2238 were added", "setting": "wild-type K-Ras protein; MLN2238 co-added, compared with TUS-007 alone", "result": "degradation of the wild-type K-Ras protein was inhibited"}, {"measurement": "general condition of the mice", "setting": "[1]", "result": "no abnormality in the general condition of the mice"}, {"measurement": "body weight changes", "setting": "[1]; vs Vehicle, FIG. 9B", "result": "no significant differences in body weight changes"}]}
